Measured values published in US20060143838A1, “Herbal dye and process of preparation thereof” (COUNCIL OF SCIENTIFIC & INDUSTRIAL RESEARCH, priority 2004, published 2006).

Legend:
Candida albicans = test: Antifungal activity of herbal black dye (disc, inhibition zone); format: cell-based; conditions: 25 mg/disc
Aspergillus niger = test: as above; format: cell-based; conditions: 25 mg/disc

Work on `COC1=CC(=O)C[C@@H](C)[C@]12Oc1c(Cl)c(OC)cc(OC)c1C2=O` [Griseofulvin] yielded an inhibition zone (Candida albicans) of 8 mm and an inhibition zone (Aspergillus niger) of 10 mm.
